Molecules are shown by their SMILES. Structures can show the parent of a compound that is named as a salt.

Data on 19 compounds can be found in EP0502314A1, “Benzimidazol, medicaments containing them and process for their preparation” (Dr. Karl Thomae GmbH, priority 1991, dated 1992).

The target of this assay is T1, Angiotensin II-Rezeptor (Rattus norvegicus, UniProt P25095).
T1 construct: Das Gewebe (Rattenlunge) wird in Tris-Puffer; from tissue; host or cells: rat lung homogenate (membrane pellet, 20,000 x g)
T1 sequence (P25095 1-359): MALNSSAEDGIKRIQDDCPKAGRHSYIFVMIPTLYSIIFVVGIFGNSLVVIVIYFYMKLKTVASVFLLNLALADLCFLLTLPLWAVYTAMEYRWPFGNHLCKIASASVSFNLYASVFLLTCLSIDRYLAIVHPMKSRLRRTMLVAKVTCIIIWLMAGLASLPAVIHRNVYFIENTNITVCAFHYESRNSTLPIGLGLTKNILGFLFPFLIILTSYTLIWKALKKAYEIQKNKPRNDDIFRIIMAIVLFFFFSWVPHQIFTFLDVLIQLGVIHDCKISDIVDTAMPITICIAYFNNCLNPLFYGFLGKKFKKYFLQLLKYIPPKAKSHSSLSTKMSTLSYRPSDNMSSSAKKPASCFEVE
In words: Angiotensin II receptor binding (displacement of [125I]-angiotensin II, rat lung homogenate). Conditions: Rattenlunge homogenate; 50 pM [125I]-Angiotensin II; 60 Min. bei 37°C; read-out: IC₅₀. On the set-up: species or system Ratte. The procedure: Methodenbeschreibung Angiotensin II-Rezeptorbindung
Das Gewebe (Rattenlunge) wird in Tris-Puffer (50 mMol Tris, 150 mMol NaCl, 5 mMol EDTA, pH 7.40) homogenisiert und zweimal je 20 Min. bei 20.000 x g zentrifugiert. Das endgültige Pellet wird in Inkubations-Puffer (50 mMol Tris, 5 mMol MgCl₂, 0,2 % BSA, pH 7,40) 1:75, bezogen auf das Feuchtgewicht des Gewebes, resuspendiert. Je 0,1 ml Homogenat wird für 60 Min. bei 37°C mit 50 pM [125^I]-Angiotensin II (NEN, Dreieich, FRG) und steigenden Konzentrationen der Testsubstanz in einem Gesamtvolumen von 0,25 ml inkubiert. Die Inkubation wird durch rasche Filtration durch Glasfiber-Filtermatten beendet. Die Filter werden je 4 ml eiskaltem Puffer (25 mMol Tris, 2.5 mMol MgCl₂, 0,1 % BSA, pH 7,40) gewaschen. Die gebundene Radioaktivität wird in einem Gamma-Counter ermittelt. Aus der Dosis-Wirkungskurve wird der entsprechende IC₅₀-Wert ermittelt.
Consider `CCCc1nc2c(C)cc(N3CCCCS3(=O)=O)cc2n1Cc1ccc(-c2ccccc2-c2nn[nH]n2)cc1` [Substanz G, 4'-[[2-n-Propyl-4-methyl-6-(butansultam-1-yl)-benzimidazol-1-yl]-methyl]-2-(1H-tetrazol-5-yl)-biphenyl], for which the IC50 stood at 1.2 nM.
Then `CCCc1nc2c(C)cc(-c3nc4ccccc4n3C)cc2n1Cc1ccc(-c2ccccc2C(=O)O)cc1` [Substanz D, 4'-[[2-n-Propyl-4-methyl-6-(1-methylbenzimidazol-2-yl)-benzimidazol-1-yl]-methyl]-biphenyl-2-carbonsäure], with 3.7 nM; and `Cc1cc(-c2nc3ccccc3n2C)cc2c1nc(C1CC1)n2Cc1ccc(-c2ccccc2C(=O)O)cc1` [Substanz M, 4'-[(2-Cyclopropyl-4-methyl-6-(1-methylbenzimidazol-2-yl)-benzimidazol-1-yl)-methyl]-biphenyl-2-carbonsäure], with 12 nM; and `CCCc1nc2c(Cl)cc(-c3nc4ccccc4n3C)cc2n1Cc1ccc(-c2ccccc2-c2nn[nH]n2)cc1` [Substanz R, 4'-[(2-n-Propyl-4-chlor-6-(1-methylbenzimidazol-2-yl)-benzimidazol-1-yl)-methyl]-2-(1H-tetrahol-5-yl)-biphenyl-hydrochlorid], with 20 nM.
For `CCCCc1nc2c(C)ccc(OCCCCn3cnc4c3CCCC4)c2n1Cc1ccc(-c2ccccc2C(=O)O)cc1` [Substanz C, 4'-[[2-n-Butyl-4-methyl-7-[4-(tetrahydrobenzimidazol-1-yl)-butyloxy]-benzimidazol-1-yl]-methyl]-biphenyl-2-carbonsäure], the IC50 was 130 nM.
Take `CCCc1nc2c(C)cc(-c3cn4c(n3)CCCC4)cc2n1Cc1ccc(-c2ccccc2-c2nnn[nH]2)cc1` [Substanz Q, 4'-[(2-n-Propyl-4-methyl-6-(5,6,7,8-tetrahydro-imidazo-[1,2-a]pyridin-2-yl)-benzimidazol-1-yl)-methyl]-2-(1H-tetrazol-5-yl)-biphenyl]: the IC50 was 1.7 nM.
Under `CCCc1nc2c(C)cc(-c3nc4ccccc4n3C)cc2n1Cc1ccc(-c2ccccc2-c2nnn[nH]2)cc1` [Substanz E, 4'-([2-n-Propyl-4-methyl-6-(1-methylbenzimidazol-2-yl)-benzimidazol-1-yl]-methyl]-2-(1H-tetrazol-5-yl)-biphenyl] stands 14 nM.
Then `CCCc1nc2c(C)cc(-c3cn4c(n3)CCCC4)cc2n1Cc1ccc(-c2ccccc2C(=O)O)cc1` [Substanz P, 4'-[(2-n-Propyl-4-methyl-6-(5,6,7,8-tetrahydro-imidazo-[1,2-a]pyridin-2-yl)-benzimidazol-1-yl)-methyl]-biphenyl-2-carbonsäure], with 1.2 nM; and `CCCCc1nc2c(C)ccc(OCCCn3ccnc3)c2n1Cc1ccc(-c2ccccc2C(=O)O)cc1` [Substanz A, 4'-[[2-n-Butyl-7-[3-(imidazol-1-yl)-propyloxy]-4-methyl-benzimidazol-1-yl]-methyl]-biphenyl-2-carbonsäure], with 510 nM; and `CCCCc1nc2c(C)ccc(OCCCn3cnc4ccccc43)c2n1Cc1ccc(-c2ccccc2C(=O)O)cc1` [Substanz B, 4'-[[2-n-Butyl-7-[3-(benzimidazol-1-yl)-propyloxy]-4-methyl-benzimidazol-1-yl]-methyl]-biphenyl-2-carbonsäure-trifluoracetat], with 52 nM.
With `CCCc1nc2c(C)cc(-c3nc4cc(F)ccc4n3C)cc2n1Cc1ccc(-c2ccccc2C(=O)O)cc1` [Substanz N, 4'-[(2-n-Propyl-4-methyl-6-(1-methyl-5-fluor-benzimidazol-2-yl)-benzimidazol-1-yl)-methyl]-biphenyl-2-carbonsäure], the IC50 was found to be 26 nM.
Take `CCCc1nc2c(C)cc(N3Cc4ccccc4C3=O)cc2n1Cc1ccc(-c2ccccc2-c2nnn[nH]2)cc1` [Substanz F, 4'-[[2-n-Propyl-4-methyl-6-(1-oxo-isoindolin-2-yl)-benzimidazol-1-yl]-methyl]-2-(1H-tetrazol-5-yl)-biphenyl]: the IC50 was determined as 5 nM.
Take `CCCc1nc2c(C)cc(-c3cn4cccnc4n3)cc2n1Cc1ccc(-c2ccccc2-c2nnn[nH]2)cc1` [Substanz O, 4'-[(2-n-Propyl-4-methyl-6-(imidazo[1,2-a]pyrimidin-2-yl)-benzimidazol-1-yl)-methyl]-2-(1H-tetrazol-5-yl)-biphenyl]: the IC50 was 3.4 nM.
Then `CCCCc1nc2c(C)cc(NC(=O)N3CCOCC3)cc2n1Cc1ccc(-c2ccccc2C(=O)O)cc1` [Substanz J, 4'-[[2-n-Butyl-4-methyl-6-(morpholinocarbonylamino)-benzimidazol-1-yl]-methyl]-biphenyl-2-carbonsäure], with 3.5 nM; and `CCCCc1nc2c(C)cc(NC(=O)NC3CCCCC3)cc2n1Cc1ccc(-c2ccccc2C(=O)O)cc1` [Substanz K, 4'-[[2-n-Butyl-6-(cyclohexylaminocarbonylamino)-4-methyl-benzimidazol-1-yl]-methyl]-biphenyl-2-carbonsäure-semi-trifluoracetat], with 17 nM.
Then `CCCc1nc2c(C)cc(-c3cn4ccsc4n3)cc2n1Cc1ccc(-c2ccccc2C(=O)O)cc1` [Substanz S, 4'-[[2-n-Propyl-4-methyl-6-(imidazo[2,1-b]thiazol-6-yl)-benzimidazol-1-yl]-methyl]-biphenyl-2-carbonsäure], with 7.8 nM.
Then `CCCCc1nc2c(C)ccc(OCCCn3ccnc3)c2n1Cc1ccc(-c2ccccc2-c2nnn[nH]2)cc1` [Substanz L, 4'-[[2-n-Butyl-7-[3-(imidazol-1-yl)-propyloxy]-4-methyl-benzimidazol-1-yl]-methyl]-2-(1H-tetrazol-5-yl)-biphenyl], with 240 nM; and `CCCCc1nc2c(C)cc(N3C(=O)C(C)=C(C)C3=O)cc2n1Cc1ccc(-c2ccccc2C(=O)O)cc1` [Substanz H, 4'-[[2-n-Butyl-6-(2,3-dimethylmaleinsäureimino)-4-methyl-benzimidazol-1-yl]-methyl]-biphenyl-2-carbonsäure-semihydrat], with 20 nM.
In the case of `CCCCc1nc2c(C)cc(NC(=O)C(C)C)cc2n1Cc1ccc(-c2ccccc2C(=O)O)cc1` [Substanz I, 4'-[[2-n-Butyl-6-(isopropylcarbonylamino)-4-methyl-benzimidazol-1-yl]-methyl]-biphenyl-2-carbonsäure], the IC50 amounted to 6.6 nM.
